Experimental data: patent publication US20220143016A1, “METHOD FOR TREATING A MULTIPLE MYELOMA” (PTC THERAPEUTICS, INC., priority 2019, published 2022)
Entries after “also recorded” stand apart in the source; their conditions may differ.

Assays:
[1] = tested on: BMI-1; assay: BMI-1 protein expression in HMCLs; format: cell-based, human; settings: within 24 hrs of treatment
Procedure: (§1) The effect of Compound 1 was tested in human MM cell lines (HMCLs) using cytotoxicity, colony formation, co-culture, qPCR, Western Blot, flow cytometry, ELISA, and lentiviral transduction experiments. The effect of Compound 1 was assessed in vivo in the 5TGM1 murine model of MM.

[2] = tested on: MYC, AKT, ERK, GSK3b, FOXM1; assay: Central MM signalling cascades and key MM gene protein expression; format: cell-based, human
Procedure: as §1

[3] = tested on: parental and PI-resistant HMCLs; assay: Cytotoxicity in human MM cell lines (HMCLs); format: cell-based; settings: parental and PI-resistant HMCLs (n=16), read-out: median IC50
Procedure: as §1

[4] = tested on: microtubule polymerization; assay: Mechanistic studies of microtubule polymerization
[5] = tested on: MM cells; assay: Drug combination studies in MM cell lines; format: cell-based, human
Procedure: as §1

[6] = tested on: MM cells; assay: Time course experiments: mitotic arrest and apoptosis in MM cells; format: cell-based, human
Procedure: as §1

[7] = tested on: 5TGM1 murine model of MM; assay: 5TGM1 murine model of MM, bone marrow infiltration; format: in vivo; settings: 5TGM1 model
Procedure: as §1

Cc1nc2ccc(F)cc2n1-c1nc(N)c(F)c(Nc2ccc(C(F)(F)F)cc2)n1 [Compound 1, 5-fluoro-2-(6-fluoro-2-methyl-1H-benzo[d]imidazol-1-yl)-N^4-[4-(trifluoromethyl)phenyl]pyrimidine-4,6-diamine]
BMI-1 protein expression [1]: downregulated BMI-1 protein expression | ERK and GSK3b activity [2]: unaffected | MYC and AKT activity [2]: significant reduction | MYC and FOXM1 protein expression [2]: Downregulation | IC50 [3]: 57.2 nM | microtubule polymerization [4]: inhibits microtubule polymerization | combination effect with established drugs and BH3 mimetics ([5]; IMiDs, Dex, PIs, MEL, BH3 mimetics targeting BCL2, BCLxL, MCL1, in individual cell lines): synergism | combination effect with epigenetic modulators ([5]; targeting EZH2, CBP/EP300, BRD4, HDACs): Consistent synergism | mitotic arrest ([6]; 6-24 h post treatment, elevated Cyclin B1, AURKA and BIRC5, downregulation of MCL1): potent mitotic arrest | rescue of MM cells with BMI-1 overexpression ([6]; BMI-1 overexpression): did not rescue | apoptosis ([6]; after prolonged mitosis, Annexin V positive cells, cleaved caspases 8 and 9, cleaved PARP, loss of MCL1, mitochondrial membrane depolarization): induction of apoptosis | MM cells after treatment ([7]; 30 mg/kg/biweekly): complete eradication of MM cells | BM infiltration ([7]; various doses versus vehicle (FIG. 1, *P<0.0001)): dose response reduction; also recorded: reproducible dose dependent reduction
